Measured values published in patent US20170312274A1, “METHOD FOR TREATING A BRAIN TUMOUR” (The Hospital for Sick Children, priority 2014, published 2017).

Key:
[1] = system: GNS cells (GBM-derived neural stem cells); test: Secondary screen / dose response curve, Alamar Blue cell viability, five days; type: cell-based, human; conditions: for IC50: six GNS and four NS lines, IC50 based on approximate observed value, read-out: potency (IC50), growth inhibition of GNS cells
Procedure: (§1) GNS and NS lines were grown as an adherent monolayer culture in serum free medium as described previously (Pollard et al. 2009. Cell stem cell 4, 568-580). Primary tumour cells were freshly dissociated from the patient sample in artificial cerebrospinal fluid followed by treatment with an enzyme cocktail at 37° C. (Singh et al. 2003. Cancer research 63, 5821-5828). BJ fibroblast, Daoy and C8-D1A and U-2 0S (ATCC) were maintained in DMEM with 10% FBS.
(§2) Cells were seeded in laminin-coated 384 well plates at a density of 2000 cells per well. Compounds were added at a concentration of approximately 5 μM and incubated with cells for five days at 37° C. Cell viability was assessed by measuring Alamar Blue incorporation according to the manufacturer's protocol (Invitrogen). Percent growth inhibition was calculated relative to the control DMSO wells.
(§3) The potency and selectivity of hits from the primary screen was tested in 8-point two-fold dilution series ranging from 50 μM-0.39 μM concentrations with more lines of GNS, NS and fibroblast. Experimental conditions were the same as in primary screen. IC50 was calculated based on an approximate observed value. Fold selectivity was calculated as IC50 of BJ/IC50 of any GNS cells with lowest IC50.

[2] = system: freshly isolated primary GBM patient tumour cells; test: Primary in vitro limiting dilution assay (LDA), neurosphere formation; type: cell-based, human; conditions: L-741,742 10 μM, PNU 96415E 25 μM, 14 days, n=3 patient tumours
Procedure: (§4) Limiting dilution assay was performed as described previously (Tropepe et al., 1999. Developmental Biology 208, 166-188). Primary tumours were dissociated into single cell suspension and seeded into a 96-well plate with 10 point-2 fold serial dilution starting from 2000 cells to 4 cells/well, 6 wells for each dilution per plate. Each well was scored for neurosphere formation after 14 days of incubation. Percent of wells not containing spheres for each cell density was calculated and plotted against the cells per well, regression lines were plotted and x-intercept value at 0.37 was calculated at 95% confidence interval using Sigma Plot, which gives the number of cells required to form at least one neurosphere.

[3] = system: GNS cells (G411 and G362); test: Autophagy markers (LC3B, p62) by western blot and immunofluorescence; type: cell-based, human; conditions: for levels of LC3B-II: L-741,742 10 μM, PNU 96415E 25 μM, G411 and G362; for LC3-II levels in the presence of chloroquine compared to control: chloroquine 30 μM, 48 h, G411; for autophagy substrate p62: treated GNS cells (G411)
Procedure: Western blots were performed using the following antibodies; anti-DRD4 antibody at 1:750 (Millipore# MABN125), anti-activated MAPK at 1:2500 (Promega#V803A), anti-ERK1/2 at 1:2000 (Promega#V114A), anti-βactin at 1:10,000 (Sigma), anti-LC3B at 1:1000 (Cell Signaling #3868), anti-p62 at 1:1000 (BD Bioscience), anti-LAMP1 at 1:2000 (Developmental Studies Hybridoma Bank), anti-mono and polyubiquitinylated protein conjugates (FK2) at 1:1000 (Enzo Life Sciences).

G411 and G362 cells = test: Cell cycle analysis by flow cytometry of DNA content; type: cell-based, human; conditions: L-741,742 10 μM, PNU 96415E 25 μM, time dependent
G481 cells = test: Combination/synergy screen with temozolomide, alamar blue; type: cell-based, human; conditions: five days, COMPUSYN, CI <1 indicates synergism
Procedure: (§5) 2000 GNS cells (G362 and G481) were seeded in a 96 well plate and treated with a combination of 6-point 2-fold dose series of either L-741,742 (6.25 μM-0.39 μM) or PNU 96415E (25 μM-1.56 μM) with 10-point 2-fold dose series of temozolomide (100 μM-0.39 μM) in 60 point combination doses. The cells were incubated with a combination of the two drugs for five days and then checked for cell viability using the alamar blue assay. Combination index (CI) plot and CI value was calculated for 5 point dose series in each combination using the programme COMPUSYN. Data points taken for COMPUSYN analysis are temozolomide (100, 50, 25, 12.5 and 6.25 μM) in combination with either L-741,742 (6.25, 3.12, 1.56, 0.78 and 0.39 μM) or PNU 96415E (25, 12.5, 6.25, 3.12 and 1.56 μM).

G362 cells = test: as above; type: cell-based, human; conditions: five days, COMPUSYN, CI <1 indicates synergism
Procedure: as §5

[4] = system: colony forming cells of in vivo treated tumours; test: In vitro LDA of in vivo treated xenograft tumours; design: species or system mouse; conditions: tumours treated in vivo 20 mg/kg i.p.; vehicle treated tumours 1 in every 11 cells
Procedure: All mouse procedures were approved by the Hospital for Sick Children's Animal Care Committee. To validate the in vivo effect of L-741,742 and PNU 96415E, 2×10^5 GNS cells in 200 μl of PBS and matrigel (1:1) were injected subcutaneously into flanks of non-obese diabetic/severe combined immunodeficient (NOD/SCID) female mice. 8 mice (2 tumours per mouse except for one mouse in control group that has one tumour) were maintained for each group; control (15 tumours), L-741,742 (16 tumours) and PNU 96415E (16 tumours). L-741,742 and PNU 96415E were dissolved in 40% 2 hydroxy β-cyclodextrin (Sigma). Mice were treated three days after tumour implantation. […] Tumour growth was monitored with microcalipers until tumour volume reached 17 mm in any one tumour from any group and all mice were sacrificed at the same end point. Dissected tumour volume was measured and mass was determined by weighing.
as §4, with “Primary tumours were dissociated into single cell suspension and seeded into a 96-well plate with 10 point-2 fold serial dilution starting from 2000 cells to 4 cells/well, 6 wells for each dilution per plate.” left out

[5] = system: ERK1/2 phosphorylation in GNS (G362) cells; test: Phospho-kinase antibody array; type: cell-based, human; conditions: L-741,742 10 μM, PNU 25 μM, 24 h
Procedure: A human phospho-kinase antibody array was purchased from R&D systems (Cat# ARY003). This array contains capture antibodies for 43 kinases in duplicate on nitrocellulose membrane. GNS (G362) and NS (hf5205) lines were treated with L-741,742 (10 μM) and PNU 96415E (25 μM) along with a DMSO control for 24 h, and cells were then processed according to the manufacturer's protocol. Signal intensity was quantified using ImageJ.

GNS cells = test: Caspase 3/7 activity and cleaved PARP in treated GNS cells; type: cell-based, human
[6] = system: GNS cells (G362) subcutaneous tumour; test: Patient derived subcutaneous xenograft (G362); type: in vivo, mouse; conditions: 20 mg/kg i.p., five days on and two days off, vs vehicle
Procedure: All mouse procedures were approved by the Hospital for Sick Children's Animal Care Committee. To validate the in vivo effect of L-741,742 and PNU 96415E, 2×10^5 GNS cells in 200 μl of PBS and matrigel (1:1) were injected subcutaneously into flanks of non-obese diabetic/severe combined immunodeficient (NOD/SCID) female mice. 8 mice (2 tumours per mouse except for one mouse in control group that has one tumour) were maintained for each group; control (15 tumours), L-741,742 (16 tumours) and PNU 96415E (16 tumours). L-741,742 and PNU 96415E were dissolved in 40% 2 hydroxy β-cyclodextrin (Sigma). Mice were treated three days after tumour implantation. Both L-741,742 and PNU 96415E were injected (20 mg/kg) i.p for 5 days on two days off until the end point. Control group was injected with 40% 2 hydroxy β-cyclodextrin. Tumour growth was monitored with microcalipers until tumour volume reached 17 mm in any one tumour from any group and all mice were sacrificed at the same end point. Dissected tumour volume was measured and mass was determined by weighing.

DRD4 receptor = target: T1, DRD4 receptor (Homo sapiens, UniProt P21917); test: cAMP assay (ELISA-based) in GNS (G362) cells; type: cell-based; conditions: pretreatment 30 μM for 15 minutes, then forskolin 30 μM
T1 construct: endogenous in cells; host or cells: GNS line G362 (patient-derived glioblastoma neural stem cells)
T1 sequence (P21917 1-419): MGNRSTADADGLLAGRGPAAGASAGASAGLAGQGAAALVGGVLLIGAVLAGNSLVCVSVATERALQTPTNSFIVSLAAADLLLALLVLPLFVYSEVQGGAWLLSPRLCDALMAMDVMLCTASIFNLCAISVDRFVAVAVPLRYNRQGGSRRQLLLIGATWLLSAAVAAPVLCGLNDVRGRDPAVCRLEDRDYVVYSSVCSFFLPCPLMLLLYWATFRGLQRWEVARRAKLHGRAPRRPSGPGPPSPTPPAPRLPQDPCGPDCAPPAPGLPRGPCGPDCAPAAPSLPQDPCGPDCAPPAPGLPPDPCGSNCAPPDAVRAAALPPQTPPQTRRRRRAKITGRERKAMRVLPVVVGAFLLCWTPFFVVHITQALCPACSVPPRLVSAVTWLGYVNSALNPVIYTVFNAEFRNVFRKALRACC
Procedure: cAMP levels were measured with an ELISA-based cAMP assay kit purchased from Cell Signaling (#4439). GNS (G362) cells were seeded overnight in a 96 well plate and treated with forskolin (30 μM) for 15 minutes, or pretreated with DRD4 agonist A412997 (30 μM) for 15 minutes followed by forskolin treatment. Cells were lysed and processed as per manufacturer's protocol.

[7] = system: non-NS control cells (BJ fibroblast, Daoy, U-2 0S, C8-D1A); test: Dose response cell viability in non-NS control cell lines; type: cell-based; conditions: highest concentration tested 50 μM
Procedure: as §1, §2, §3

[8] = dose response series 0.39-50 μM

Compound `Clc1ccc(N2CCN(Cc3c[nH]c4ncccc34)CC2)cc1` [L-745,870] has an IC50 [1] of 3.1 to 6.2 µM.
With Ifenprodil tartrate the “selectivity against GNS cells compared to NS cells” value (“selectivity against GNS cells” below) [1, 8] was 8 fold.
PD168568 showed an IC50 [1] of 25 to 50 µM.
For `Cc1c(C2CCN(CCc3ccccc3)CC2)noc1-c1ccc(Cl)cc1` [L-741,742], the “reduction in frequency of colony forming cells in comparison to the control” value [2] was 40-83 fold, the “selectivity against GNS cells” value [1, 8] was 8 fold and the IC50 [1] was 1.5 to 6.2 µM. For the same compound, the “levels of LC3B-II” value [3] was “increase”, the “LC3-II levels in the presence of chloroquine compared to control” value [3] was “did not increase” and the “autophagy substrate p62” value [3] was “accumulated”. The “effect on the cell cycle” value (G411 and G362 cells) was “G0/G1 arrest”, the “lowest combination index (CI) value in combination with TMZ” value (shortened to “lowest combination index (CI) value”) (G481 cells) was 0.28 and the “lowest combination index (CI) value” value (G362 cells) was 0.29. For the same compound, the “colony forming cell frequency, 1 in every x cells” value [4] was 76 cells, the “reduction of ERK1/2 phosphorylation compared to the untreated control” value [5] was 40% and the “caspase 3/7 activity or cleaved PARP” value (GNS cells) was “no increase”. For the same compound, the “average tumour weight at the end point reduced by” value [6] was 40.9%.
For `Cc1cccc(NC(=O)CN2CCC(c3ccccn3)CC2)c1` [A412997], the “block of forskolin-induced cAMP response” value (DRD4 receptor) was 38%.
`Br.Br.CN(CCc1ccc(Cl)c(Cl)c1)[C@@H]1CCCC[C@@H]1N1CCCC1` (racemic) [cis-(±)-N-Methyl-N-[2-(3,4-dichlorophenyl)ethyl]-2-(1-pyrrolidinyl)cyclohexamine 2HBr] was tested, and the “Fold selectivity towards GNS and NS cells compared to fibroblasts (IC50 of BJ/IC50 of any of the NS or GNS lines that showed the lowest IC50)” value ([1]; dose response series 0.39-50 μM, five days) was 8 fold.
`Cl.Cl.Fc1ccc(N2CCN(CCC3OCCc4ccccc43)CC2)cc1` (centres unmarked) [PNU 96415E] was tested, and the “reduction in frequency of colony forming cells in comparison to the control” value [2] was 19-29 fold, the “sensitivity of non-NS control cells” value [7] was “not sensitive even at the highest concentration tested” and the “selectivity against GNS cells” value [1, 8] was 8 fold. For the same compound, the IC50 [1] was 6.25 µM, the “levels of LC3B-II” value [3] was “increase” and the “LC3-II levels in the presence of chloroquine compared to control” value [3] was “did not increase”. For the same compound, the “autophagy substrate p62” value [3] was “accumulated”, the “effect on the cell cycle” value (G411 and G362 cells) was “G0/G1 arrest” and the “lowest combination index (CI) value” value (G481 cells) was 0.32. The “lowest combination index (CI) value” value (G362 cells) was 0.56, the “colony forming cell frequency, 1 in every x cells” value [4] was 43 cells and the “reduction of ERK1/2 phosphorylation compared to the untreated control” value [5] was 40%. The “caspase 3/7 activity or cleaved PARP” value (GNS cells) was “no increase” and the “average tumour weight at the end point reduced by” value [6] was 44.3%.
